Assay results: patent US20240228469A1, “PCSK9 INHIBITORS AND METHODS OF USE THEREOF” (AstraZeneca AB, priority 2022, published 2024)

Experiments:
[1] = molecular target: GSK3β (Glycogen synthase kinase-3 beta) (Homo sapiens, UniProt P49841); assay: Assay 6 GSK3β assay (ThermoFisher Z-Lyte FRET); format: biochemical; details: ATP Conc: 10 μM, geometric mean; read-out: Assay 6 (GSK3β FRET-Z-Lyte Cr) GMean IC50
Method: This assay measures the activity of the compounds at GSK33 (Glycogen synthase kinase-3 beta).
The test compounds were screened in 1% DMSO (final) in the well. For 10 point titrations, 3-fold serial dilutions are conducted from the starting concentration of 10 PM.
Bar-coded Corning, low volume NBS, black 384-well plate • 1. 2.5 μL—4× Test Compound or 100 nL 100× plus 2.4 μL kinase buffer • 2. 5 μL—2× Peptide/Kinase Mixture • 3. 2.5 μL—4×ATP Solution • 4. 30-second plate shake • 5. 60-minute Kinase Reaction incubation at room temperature • 6. 5 μL—Development Reagent Solution • 7. 30-second plate shake • 8. 60-minute Development Reaction incubation at room temperature • 9. Read on fluorescence plate reader and analyse the data
In step 2, the 2×GSK3β (GSK3 beta)/Ser/Thr (Glycogen synthase kinase-3 beta/Serine/Threonine) 09 mixture is prepared in 50 mM HEPES (4-(2-hydroxyethyl)-1-piperazineethanesulfonic acid) pH 7.5, 0.01% BRIJ-35, 10 mM MgCl2, 1 mM EGTA (egtazic acid). The final 10 μL Kinase Reaction consists of 0.22-0.92 ng GSK3β (GSK3 beta) and 2 PM Ser/Thr 09 in 50 mM HEPES pH 7.5, 0.01% BRIJ-35, 10 mM MgCl2, 1 mM EGTA.
In step 3 the ATP Solution is diluted to a 4× working concentration in Kinase Buffer (50 mM HEPES pH 7.5, 0.01% BRIJ-35, 10 mM MgCl2, 1 mM EGTA).
In Step 6 the Development Reagent is diluted 1:512 in Development Buffer (10× Novel PKC Lipid Mix: 2 mg/mL Phosphatidyl Serine, 0.2 mg/mL DAG in 20 mM HEPES, pH 7.4, 0.3% CHAPS).
SelectScreen® Kinase Profiling Service uses XLfit from IDBS. The dose response curve is curve fit to model number 205 (sigmoidal dose-response model).

PCSK9 = PCSK9 (Homo sapiens, UniProt Q8NBP7, G670E/V474I); assay: biochemical
[2] = molecular target: T1, potassium ion channel hERG (Homo sapiens, UniProt Q12809); assay: Assay 5 hERG assay (patch clamp, CHO cells over-expressing hERG); format: cell-based; details: SyncroPatch 384PE, room temperature, geometric mean, read-out: Assay 5 (hERG Hu CHO if EPh CR-Syncro) GMean IC50
T1 construct: expressed in transfected cells; host or cells: Chinese hamster ovary K1 (CHO)
Method: This assay (human Ether-d-go-go-Related Gene) measures activity of the compounds at the potassium ion channel hERG (human Ether-d-go-go-Related Gene).
Experiments were performed on the SyncroPatch 384PE high throughput patch clamp platform at room temperature and medium resistance chips with 4 patch holes per site. Chinese hamster ovary K1 (CHO) cell lines over-expressing the ion channel of choice (hERG) were used in assay-ready format and kept in liquid nitrogen or were used from live culture. Cells were either thawed and diluted in HBSS or were detached from flasks and resuspended in HBSS. HBSS comprised 140 mM NaCl, 4 mM KCl, 10 mM HEPES and 5 mM Glucose (pH7.4). The internal patch clamp solution was KF 120 mM, KCl 20 mM, HEPES 10 mM, EGTA 10 mM, and 25 PM Escin (pH 7.2). After the sealing process was complete, the external solution was exchanged for external patch clamp solution comprising NaCl 80 mM, KCl 4 mM, HEPES 10 mM, CaCl2 2 mM, MgCl2 1 mM, glucose 5 mM, and NMDG 60 mM (pH 7.4). All solutions were stored at room temperature, except Escin, which was stored at 4° C. All test compounds were dispensed in greiner-bio 384 well plates and tested in a 6 point cumulative assay (final DMSO concentration 0.33%). Only wells that passed previously agreed acceptance criteria for this platform were used in this analysis (30 MegaOhm seal resistance, Z prime >0.4 and current size >0.2 nA). […]

T1 sequence (Q12809 whole entry): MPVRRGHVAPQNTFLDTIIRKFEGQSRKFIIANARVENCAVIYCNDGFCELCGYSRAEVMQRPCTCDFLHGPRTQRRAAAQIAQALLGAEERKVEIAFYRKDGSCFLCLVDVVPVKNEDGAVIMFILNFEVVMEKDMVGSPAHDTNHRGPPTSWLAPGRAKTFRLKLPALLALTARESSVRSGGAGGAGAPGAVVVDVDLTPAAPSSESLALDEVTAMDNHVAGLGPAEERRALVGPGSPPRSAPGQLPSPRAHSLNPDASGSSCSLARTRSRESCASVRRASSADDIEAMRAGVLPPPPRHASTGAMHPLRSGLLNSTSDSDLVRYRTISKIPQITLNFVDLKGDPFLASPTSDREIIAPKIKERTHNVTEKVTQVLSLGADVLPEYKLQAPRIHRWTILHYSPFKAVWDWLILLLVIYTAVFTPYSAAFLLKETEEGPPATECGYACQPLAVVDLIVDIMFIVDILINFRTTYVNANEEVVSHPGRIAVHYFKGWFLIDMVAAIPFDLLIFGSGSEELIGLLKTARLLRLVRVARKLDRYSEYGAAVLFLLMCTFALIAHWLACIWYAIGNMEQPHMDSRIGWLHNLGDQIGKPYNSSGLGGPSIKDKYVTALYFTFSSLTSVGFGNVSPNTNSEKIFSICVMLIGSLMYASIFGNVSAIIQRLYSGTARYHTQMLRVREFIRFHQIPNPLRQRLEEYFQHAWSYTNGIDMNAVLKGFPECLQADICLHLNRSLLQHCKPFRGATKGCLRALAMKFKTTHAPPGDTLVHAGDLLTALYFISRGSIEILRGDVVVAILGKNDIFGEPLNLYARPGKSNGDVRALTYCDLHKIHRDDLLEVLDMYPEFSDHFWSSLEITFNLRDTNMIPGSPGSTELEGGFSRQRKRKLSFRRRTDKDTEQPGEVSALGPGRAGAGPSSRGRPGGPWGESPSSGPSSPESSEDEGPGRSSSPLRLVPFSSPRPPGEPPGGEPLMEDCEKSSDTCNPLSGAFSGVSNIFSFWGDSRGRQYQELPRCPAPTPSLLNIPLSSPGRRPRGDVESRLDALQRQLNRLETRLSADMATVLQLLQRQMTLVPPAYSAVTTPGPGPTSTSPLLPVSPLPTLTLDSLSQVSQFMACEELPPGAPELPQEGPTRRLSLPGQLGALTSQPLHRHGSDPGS
Chain of PCSK9 (Q8NBP7 with tags, fused parts or gaps V474I/G670E): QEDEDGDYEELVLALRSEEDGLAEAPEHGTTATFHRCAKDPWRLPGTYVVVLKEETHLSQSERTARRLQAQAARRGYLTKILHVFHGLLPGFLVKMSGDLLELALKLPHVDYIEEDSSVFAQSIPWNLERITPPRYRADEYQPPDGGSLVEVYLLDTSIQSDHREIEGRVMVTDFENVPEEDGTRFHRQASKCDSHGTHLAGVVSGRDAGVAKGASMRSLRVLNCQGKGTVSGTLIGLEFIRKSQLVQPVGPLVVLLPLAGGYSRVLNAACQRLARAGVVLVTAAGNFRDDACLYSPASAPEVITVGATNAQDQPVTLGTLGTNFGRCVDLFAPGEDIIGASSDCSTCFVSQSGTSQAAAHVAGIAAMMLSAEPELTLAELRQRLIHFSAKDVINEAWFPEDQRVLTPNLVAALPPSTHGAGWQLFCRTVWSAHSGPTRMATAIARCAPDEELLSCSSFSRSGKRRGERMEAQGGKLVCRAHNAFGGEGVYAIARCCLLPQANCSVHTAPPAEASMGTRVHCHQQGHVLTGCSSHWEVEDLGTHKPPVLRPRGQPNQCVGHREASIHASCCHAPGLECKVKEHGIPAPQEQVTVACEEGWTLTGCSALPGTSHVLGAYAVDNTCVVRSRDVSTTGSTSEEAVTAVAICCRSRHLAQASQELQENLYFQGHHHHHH
Chain of GSK3β (Glycogen synthase kinase-3 beta) (P49841 whole entry): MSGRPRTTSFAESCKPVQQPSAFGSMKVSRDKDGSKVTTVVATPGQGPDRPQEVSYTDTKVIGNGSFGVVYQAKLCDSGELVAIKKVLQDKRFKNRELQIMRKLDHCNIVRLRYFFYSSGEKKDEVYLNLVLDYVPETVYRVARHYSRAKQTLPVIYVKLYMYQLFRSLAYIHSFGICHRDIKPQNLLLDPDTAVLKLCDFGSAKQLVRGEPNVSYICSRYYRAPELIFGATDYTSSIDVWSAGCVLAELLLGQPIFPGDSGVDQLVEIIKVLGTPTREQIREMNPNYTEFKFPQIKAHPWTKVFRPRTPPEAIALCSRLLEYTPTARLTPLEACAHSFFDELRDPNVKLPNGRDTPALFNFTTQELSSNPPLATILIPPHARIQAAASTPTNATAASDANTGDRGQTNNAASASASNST

Row | SMILES | IC50 [1] | IC50 (PCSK9) | IC50 [2]
1 | Cc1cnc(N[C@H]2CC[C@H](Nc3ccc(-n4ccc(C#N)cc4=O)cn3)C2)nn1 [Example 183, 6′-(((1S,3S)-3-((6-Methyl-1,2,4-triazin-3-yl)amino)cyclopentyl)amino)-2-oxo-2H-[1,3′-bipyridine]-4-carbonitrile] | > 10 µM | 30 nM | > 40.1 µM
2 | Cc1cnc(N[C@H]2CC[C@H](Nc3ccc(-n4nc(Cl)ccc4=O)cn3)C2)nn1 [Example 222] | > 10 µM | 8.3 nM | > 40.1 µM
3 | Cc1cnc(N[C@H]2CC[C@H](Nc3ccc(-c4ccccc4C#N)cn3)C2)nn1 [Example 247, 2-(6-(((1S,3S)-3-((6-Methyl-1,2,4-triazin-3-yl)amino)cyclopentyl)amino)pyridin-3-yl)benzonitrile] | > 10 µM | 75 nM | 6.6 µM
4 | Cc1cnc(N[C@H]2CC[C@H](Nc3ccc(-c4ncccc4C)cn3)C2)nn1 [Example 248] | > 10 µM | 13 nM | > 40.1 µM
5 | Cc1cnc(N[C@H]2CC[C@H](Nc3ccc(-n4nc(C)cc4C)cn3)C2)nn1 [Example 249] | > 10 µM | 16 nM | > 40.1 µM
6 | Cc1cnc(N[C@H]2CC[C@H](Nc3ccc(-n4c(C)nc(C)c4C#N)cn3)C2)nn1 [Example 250, 2,4-Dimethyl-1-(6-(((1S,3S)-3-((6-methyl-1,2,4-triazin-3-yl)amino)cyclopentyl)amino)pyridin-3-yl)-1H-imidazole-5-carbonitrile] | > 10 µM | 108 nM | > 40.1 µM
7 | Cc1nnc(N[C@H]2CC[C@H](Nc3ccc(-n4ccccc4=O)cn3)C2)[nH]c1=O [Example 254, 6′-(((1S,3S)-3-((6-Methyl-5-oxo-4,5-dihydro-1,2,4-triazin-3-yl)amino)cyclopentyl)amino)-2H-[1,3′-bipyridin]-2-one] | 6.14 µM | 330 nM | > 40.1 µM
8 | O=c1ccccn1-c1ccc(N[C@H]2CC[C@H](Nc3ncc(Cl)nn3)C2)nc1 [Example 255, 6′-(((1S,3S)-3-((6-Chloro-1,2,4-triazin-3-yl)amino)cyclopentyl)amino)-2H-[1,3′-bipyridin]-2-one] | 5.33 µM | 78 nM | > 40.1 µM
9 | CN(C)c1cnc(N[C@H]2CC[C@H](Nc3ccc(-n4ccccc4=O)cn3)C2)nn1 [Example 256, 6′-(((1S,3S)-3-((6-(Dimethylamino)-1,2,4-triazin-3-yl)amino)cyclopentyl)amino)-2H-[1,3′-bipyridin]-2-one] | 1.68 µM | 119 nM | > 40.1 µM
10 | O=c1ccccn1-c1ccc(N[C@H]2CC[C@H](Nc3ncc(-c4ccn[nH]4)nn3)C2)nc1 [Example 257, 6′-(((1S,3S)-3-((6-(1H-Pyrazol-5-yl)-1,2,4-triazin-3-yl)amino)cyclopentyl)amino)-2H-[1,3′-bipyridin]-2-one] | 2.81 µM | 62 nM | > 40.1 µM
11 | CCSc1cnc(N[C@H]2CC[C@H](Nc3ccc(-n4ccccc4=O)cn3)C2)nn1 [Example 258, 6′-(((1S,3S)-3-((6-(Ethylthio)-1,2,4-triazin-3-yl)amino)cyclopentyl)amino)-2H-[1,3′-bipyridin]-2-one] | 0.237 µM | 15 nM | 26.1 µM
12 | CC(=O)c1cnc(N[C@H]2CC[C@H](Nc3ccc(-n4ccccc4=O)cn3)C2)nn1 [Example 260, 6′-(((1S,3S)-3-((6-Acetyl-1,2,4-triazin-3-yl)amino)cyclopentyl)amino)-2H-[1,3′-bipyridin]-2-one] | 1.32 µM | 101 nM | > 40 µM
13 | Cc1cnc(N[C@H]2CC[C@H](Nc3ccc(-n4nccc(C#N)c4=O)cn3)C2)nn1 [Example 277, 2-(6-(((1S,3S)-3-((6-Methyl-1,2,4-triazin-3-yl)amino)cyclopentyl)amino)pyridin-3-yl)-3-oxo-2,3-dihydropyridazine-4-carbonitrile] | 9.56 µM | 4.9 nM | > 40.1 µM
14 | COc1cccnc1-c1ccc(N[C@H]2CC[C@H](Nc3ncc(C)nn3)C2)nc1 [Example 304, (1S,3S)—N′-(3-Methoxy-[2,3′-bipyridin]-6′-yl)-N^3-(6-methyl-1,2,4-triazin-3-yl)cyclopentane-1,3-diamine] | > 10 µM | 96 nM | > 40.1 µM
15 | COc1cccc(-c2ccc(N[C@H]3CC[C@H](Nc4ncc(C)nn4)C3)nc2)n1 [Example 305, (1S,3S)—N′-(6-Methoxy-[2,3′-bipyridin]-6′-yl)-N^3-(6-methyl-1,2,4-triazin-3-yl)cyclopentane-1,3-diamine] | > 10 µM | 91 nM | 3.2 µM
16 | COc1ccccc1-c1ccc(N[C@H]2CC[C@H](Nc3ncc(C)nn3)C2)nc1 [Example 306, (1S,3S)—N′-(5-(2-Methoxyphenyl)pyridin-2-yl)-N^3-(6-methyl-1,2,4-triazin-3-yl)cyclopentane-1,3-diamine] | > 10 µM | 302 nM | 4.5 µM
17 | COc1cccc(OC)c1-c1ccc(N[C@H]2CC[C@H](Nc3ncc(C)nn3)C2)nc1 [Example 307, (1S,3S)—N^1-(5-(2,6-Dimethoxyphenyl)pyridin-2-yl)-N^3-(6-methyl-1,2,4-triazin-3-yl)cyclopentane-1,3-diamine] | > 10 µM | 1660 nM | 23.3 µM
18 | COc1cccc(F)c1-c1ccc(N[C@H]2CC[C@H](Nc3ncc(C)nn3)C2)nc1 [Example 308, (1S,3S)—N′-(5-(2-Fluoro-6-methoxyphenyl)pyridin-2-yl)-N^3-(6-methyl-1,2,4-triazin-3-yl)cyclopentane-1,3-diamine] | > 10 µM | 51 nM | 12 µM
19 | Cc1cnc(N[C@H]2CC[C@H](Nc3ccc(-c4ccccn4)cn3)C2)nn1 [Example 309, (1S,3S)—N′-([2,3′-Bipyridin]-6′-yl)-N^3-(6-methyl-1,2,4-triazin-3-yl)cyclopentane-1,3-diamine] | > 10 µM | 534 nM | 11.4 µM
20 | Cc1cnc(N[C@H]2CC[C@H](Nc3ccc(-n4cc5ccccc5n4)cn3)C2)nn1 [Example 312, (1S,3S)—N^1-(5-(2H-Indazol-2-yl)pyridin-2-yl)-N^3-(6-methyl-1,2,4-triazin-3-yl)cyclopentane-1,3-diamine] | > 10 µM | 37 nM | 4.2 µM
21 | Cc1cnc(N[C@H]2CC[C@H](Nc3ccc(-n4nc(C)nc4C)cn3)C2)nn1 [Example 313, (1S,3S)—N^1-(5-(3,5-dimethyl-1H-1,2,4-triazol-1-yl)pyridin-2-yl)-N^3-(6-methyl-1,2,4-triazin-3-yl)cyclopentane-1,3-diamine] | > 10 µM | 16 nM | > 40.1 µM
22 | Cc1cnc(N[C@H]2CC[C@H](Nc3ccc(-c4nc(C)oc4C)cn3)C2)nn1 [Example 314, (1S,3S)—N^1-(5-(2,5-Dimethyloxazol-4-yl)pyridin-2-yl)-N^3-(6-methyl-1,2,4-triazin-3-yl)cyclopentane-1,3-diamine] | > 10 µM | 110 nM | 25.7 µM
